Patent US4786755A, “Diphenic acid monoamides” (Warner-Lambert Company, priority 1986, dated 1988)

These compounds were tested against T1, leukotriene receptor (Cavia porcellus, UniProt Q2NNR5) (assay: Binding of ^3 H-Leukotriene D4 to Guinea Pig Lung Membranes (RBL)). Conditions: ^3 H-LTD4, guinea pig lung membranes; read-out: IC50 RBL1.
T1 construct: 20 mg original tissue wet weight of guinea pig lung membranes; tissue Kuiper Rabbit Farm, Gary, IN (animals); host or cells: guinea pig lung, crude membranes
T1 sequence (Q2NNR5 1-340): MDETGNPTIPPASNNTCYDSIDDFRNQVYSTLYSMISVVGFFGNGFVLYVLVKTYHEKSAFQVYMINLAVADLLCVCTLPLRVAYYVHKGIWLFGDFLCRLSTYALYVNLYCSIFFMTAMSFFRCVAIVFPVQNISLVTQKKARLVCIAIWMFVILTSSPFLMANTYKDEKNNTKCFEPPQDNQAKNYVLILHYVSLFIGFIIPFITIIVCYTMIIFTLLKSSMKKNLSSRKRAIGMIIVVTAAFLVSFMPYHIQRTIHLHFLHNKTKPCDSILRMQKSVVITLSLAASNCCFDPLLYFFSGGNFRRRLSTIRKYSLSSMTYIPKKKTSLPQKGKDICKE
Description: Additionally, the activity, of the compounds having the Formula I of the present invention is determined by the well known leukotriene receptor binding assay that is described by R. F. Bruns, W. J. Thomsen and T. A. Pugsley in Life Sciences, 33, 645 (1983) or the Herxheimer in vivo antiallergy test described in H. Herxheimer, J. Physiol. (London), Vol. 177, p. 251 (1952).
Binding of ^3 H-Leukotriene D4 to Guinea Pig Lung Membranes (RBL)
[14,15-^3 H]leukotriene D4 (^3 H-LTD4) (25 Ci/mmol and 40 Ci/mmol) is purchased from New England Nuclear. Unlabeled LTC4 is a gift of Ono Pharmaceuticals (Japan). LTC4, LTD4, and LTE4 are purchased as methyl esters from Paesel GmbH (Frankfurt, W. Germany). Concentrations of the Paesel leukotrienes are calculated from their absorbance at 280 nm. Leukotriene esters are saponified overnight under N2 in 3.3% potassium carbonate at room temperature. Tritiated leukotrienes are stored as received from New England Nuclear at -20° C. Ono LTC4 (5 μg/ml is stored at -60° C. in phosphate buffer pH 6.8. Saponified Paesel leukotrienes are stored at -60° C. in 3.3% potassium carbonate (pH 9.0-9.5). Aliquots of leukotrienes are taken from stock solutions immediately after thawing, after which the stock solutions are immediately refrozen. 2-Amino-2-(hydroxymethyl)-1,3-propanediol (Tris) is Sigma pH 7.7 pre-set crystals, and dimethylsulfoxide is Aldrich Gold Label.
Preparation of crude lung membranes
Two pairs of lungs (1.3 g) from freshly sacrificed 300 g male guinea pigs (older animals gave substantially lower binding) from Kuiper Rabbit Farm, Gary, IN are disrupted with a Polytron PT 10 (setting 4) for 30 seconds in 20 ml ice-cold 50 mM Tris adjusted with HCl to pH 7.7 at 25° C. (Tris buffer), filtered through a single layer of gauze to remove connective tissue, and centrifuged at 50,000 xg for ten min. The pellet is resuspended by homogenization with a Polytron in 20 ml Tris buffer, centrifuged at 50,000 xg for ten min., resuspended, incubated at 37° C. for 30 minutes, and centrifuged again. The final pellet is resuspended in Tris buffer and either used fresh or stored at -70° C.
All incubations are in triplicate for 60 minutes at 25° C. in 12×75 mm polystyrene tubes containing 1 ml Tris buffer with 20 mg original tissue wet weight of guinea pig lung membranes, 0.2 nM ^3 H-LTD4 (6,000-11,000 cpm), 10 mM MgCl2, and 1% dimethylsulfoxide. Leukotrienes are diluted in Tris buffer. All other test compounds are dissolved at 10 mM in dimethylsulfoxide on the same day as the experiment, and diluted in dimethylsulfoxide to 100× the final incubation concentration. Control incubations receive an equal volume (10 μl) of dimethylsulfoxide; the resulting concentration of dimethylsulfoxide had no effect on binding. ^3 H-LTD4 is diluted to 2 nM in Tris buffer. The membrane suspension (20 mg/0.89 ml) contains sufficient MgCl2 to give 10 mM final concentration in the incubation. […] All additions are performed at 0° C. Immediately after the last addition, the incubation is initiated by agitating the rack of tubes on a vortex mixer and warming to 25° C. in a water bath. Tubes are vortexed at least once more during the incubation to ensure that the membranes remained suspended. Incubations are terminated after 60 minutes by filtering under reduced pressure through 25 mm Whatman GF/B filters followed by rapid washing three times with 4 ml of ice-cold Tris buffer. Filters are added to scintillation vials with 8 ml Formula 947 (New England Nuclear), left overnight, shaken, and the radioactivity counted in a scintillation counter (efficiency 40%). Nonspecific binding, defined as binding of ^3 H-LTD4 in the presence of 100 nM LTC4, is 300-500 cpm for all lots of ^3 H-LTD4. Binding to the filters in the absence of tissue is about 100 cpm, and is not affected by unlabeled LTC4. Specific binding, defined as total binding minus nonspecific binding, varied considerably from lot to lot of ^3 H-LTD4. […]
An IC50 of 1 µM was found for O=C(O)c1ccccc1-c1ccccc1C(=O)Nc1cccc(CCCc2ccc(Cl)c(Cl)c2)c1 [Example 6, [1,1'-Biphenyl]-2-carboxylic acid, 2'-[[[3-[3-(3,4-dichlorophenyl)propyl]phenyl]amino]carbonyl]] in this work. An IC50 of 5.4 µM was found for O=C(O)c1ccccc1-c1ccccc1C(=O)Nc1ccc(CCc2cc(C(F)(F)F)cc(C(F)(F)F)c2)cc1 [Example 13, [1,1'-Biphenyl]-2-carboxylic acid, 2'-[[[4-[2-[3,5-bis(trifluoromethyl)phenyl]ethyl]phenyl]amino]carbonyl]-] in this work. An IC50 of 11.2 µM was found for CCCCCCCCCCc1ccc(NC(=O)c2ccccc2-c2ccccc2C(=O)O)cc1 [Example 20] in this work. An IC50 of 1.2 µM was found for O=C(O)c1ccccc1-c1ccccc1C(=O)Nc1ccc(OCCCCc2ccccc2)cc1 [Example 44, [1,1'-Biphenyl]-2-carboxylic acid, 2'-[[[4-(4-phenylbutyloxy)phenyl]amino]carbonyl]-] in this work. An IC50 of 5.7 µM was found for O=C(C=Cc1ccc(Cl)c(Cl)c1)c1ccc(NC(=O)c2ccccc2-c2ccccc2C(=O)O)cc1 [Example 46, [1,1'-Biphenyl]-2-carboxylic acid, 2'-[[[4-[1-oxo-3-(3,4-dichlorophenyl)-2-propenyl]phenyl]amino]-carbonyl]-] in this work. An IC50 of 27.1 µM was found for O=C(C=Cc1ccc(Br)cc1)c1ccc(NC(=O)c2ccccc2-c2ccccc2C(=O)O)cc1 [Example 47, [1,1'-Biphenyl]-2-carboxylic acid, 2'-[[[4-[1-oxo-3-(4-bromophenyl)-2-propenyl]phenyl]amino]carbonyl]-] in this work. An IC50 of 53.1 µM was found for CN(C)c1ccc(CCC(=O)c2ccc(NC(=O)c3ccccc3-c3ccccc3C(=O)O)cc2)cc1 [Example 48, [1,1'-Biphenyl]-2-carboxylic acid, 2'-[[[4-[1-oxo-3-(4-dimethylaminophenyl)propyl]phenyl]amino]carbonyl]-] in this work. An IC50 of 7.5 µM was found for O=C(CCc1ccc(Cl)cc1)c1ccc(NC(=O)c2ccccc2-c2ccccc2C(=O)O)cc1 [Example 49, [1,1'-Biphenyl]-2-carboxylic acid, 2'-[[[4-[1-oxo-3-(4-chlorophenyl)propyl]phenyl]amino]carbonyl]-] in this work. An IC50 of 0.7 µM was found for O=C(O)c1ccccc1-c1ccccc1C(=O)Nc1cccc(CCCCc2ccc(Cl)c(Cl)c2)c1 [Example 50, [1,1'-Biphenyl]-2-carboxylic acid, 2'-[[[3-[4-(3,4-dichlorophenyl)butyl]phenyl]amino]carbonyl]-] in this work. An IC50 of 7.2 µM was found for O=C(CCc1ccc(Br)cc1)c1ccc(NC(=O)c2ccccc2-c2ccccc2C(=O)O)cc1 [Example 51, [1,1'-Biphenyl]-2-carboxylic acid, 2'-[[[4-[1-oxo-3-(4-bromophenyl)propyl]phenyl]amino]-carbonyl]-] in this work. An IC50 of 13.2 µM was found for O=C(O)c1ccccc1-c1ccccc1C(=O)Nc1ccc(CCc2ccc(Oc3ccccc3)cc2)cc1 [Example 52] in this work. An IC50 of 2.4 µM was found for O=C(O)c1ccccc1-c1ccccc1C(=O)Nc1cccc(CCc2ccc(Oc3ccccc3)cc2)c1 [Example 53] in this work. An IC50 of 17.1 µM was found for O=C(CCc1ccc(NC(=O)c2ccccc2-c2ccccc2C(=O)O)cc1)c1ccc(Oc2ccccc2)cc1 [Example 54, [1,1'-Biphenyl]-2-carboxylic acid, 2'-[[[4-[3-oxo-3-(4-phenoxyphenyl)propyl]phenyl]amino]carbonyl]-] in this work. An IC50 of 13.1 µM was found for O=C(O)c1ccccc1-c1ccccc1C(=O)Nc1ccc(CCCc2ccc(Oc3ccccc3)cc2)cc1 [Example 55, [1,1'-Biphenyl]-2-carboxylic acid, 2'-[[[4-[3-(4-phenoxyphenyl)propyl]phenyl]amino]carbonyl]-] in this work. An IC50 of 3.8 µM was found for O=C(CCCCc1ccc(Cl)c(Cl)c1)c1ccc(NC(=O)c2ccccc2-c2ccccc2C(=O)O)cc1 [Example 56, [1,1'-Biphenyl]-2-carboxylic acid, 2'-[[[4-[5-(3,4-dichlorophenyl)-1-oxopentyl]phenyl]amino]-carbonyl]-] in this work. An IC50 of 44.9 µM was found for CC(CC(=O)CCc1ccc(NC(=O)c2ccccc2-c2ccccc2C(=O)O)cc1)c1ccccc1 (centres unmarked) [Example 57, [1,1'-Biphenyl]-2-carboxylic acid, 2'-[[[4-[5-phenyl-3-oxohexyl]phenyl]amino]carbonyl]-] in this work. An IC50 of 7.3 µM was found for O=C(O)c1ccccc1-c1ccccc1C(=O)Nc1ccc(CCCCCc2ccc(Cl)c(Cl)c2)cc1 [Example 58, [1,1'-Biphenyl]-2-carboxylic acid, 2'-[[[4-[5-(3,4-dichlorophenyl]pentyl]phenyl]amino]carbonyl]-] in this work.
